Non-standard residues stand in square brackets, D forms with d. pGlu = O=C1CC[C@@H](C(=O)O)N1
Legend:
Format in all cases: cell-based, human
whole blood [1] = assay: Whole blood IL-2 release to peptide pools and individual peptides, MAGPIX multiplex bead assay (Example 3); conditions: 10 uM
whole blood [2] = assay: Whole blood IFN-γ release to peptide pools and individual peptides, MAGPIX multiplex bead assay (Example 3); conditions: 10 uM
whole blood [3] = assay: Whole blood IP-10 release to peptide pools and individual peptides, MAGPIX multiplex bead assay (Example 3); conditions: Table 10C, 10 uM
[4] = Subject 1 (HLA-DQ 2.5, 8), day 0 of oral challenge
[5] = Subject 1 (HLA-DQ 2.5, 8), day 6 of oral challenge
[6] = Subject 2 (HLA-DQ 2.5, 8), day 0 of oral challenge
[7] = Subject 2 (HLA-DQ 2.5, 8), day 6 of oral challenge
[8] = Subject 6 (HLA-DQ 2.5), day 0 of oral challenge
[9] = Subject 6 (HLA-DQ 2.5), day 6 of oral challenge
[10] = Subject 7 (HLA-DQ 2.5, 8), day 0 of oral challenge
[11] = Subject 7 (HLA-DQ 2.5, 8), day 6 of oral challenge
[12] = Subject 1, day 0 since commencing oral challenge
[13] = Subject 1, day 6 since commencing oral challenge
[14] = Subject 2, day 0 since commencing oral challenge
[15] = Subject 2, day 6 since commencing oral challenge
[16] = Subject 6, day 0 since commencing oral challenge
[17] = Subject 6, day 6 since commencing oral challenge
[18] = Subject 7, day 0 since commencing oral challenge
[19] = Subject 7, day 6 since commencing oral challenge

(pE)LQPFPQPELPYPQPQ-NH2 ([pGlu]LQPFPQPELPYPQPQ-NH2; SMILES CC(C)C[C@H](NC(=O)[C@@H]1CCC(=O)N1)C(=O)N[C@@H](CCC(N)=O)C(=O)N1CCC[C@H]1C(=O)N[C@@H](Cc1ccccc1)C(=O)N1CCC[C@H]1C(=O)N[C@@H](CCC(N)=O)C(=O)N1CCC[C@H]1C(=O)N[C@@H](CCC(=O)O)C(=O)N[C@@H](CC(C)C)C(=O)N1CCC[C@H]1C(=O)N[C@@H](Cc1ccc(O)cc1)C(=O)N1CCC[C@H]1C(=O)N[C@@H](CCC(N)=O)C(=O)N1CCC[C@H]1C(=O)N[C@@H](CCC(N)=O)C(N)=O)
Whole blood IL-2 release, Concentration (whole blood [1]; [4]): 3.2 pg/mL | Whole blood IL-2 release, Fold-change over medium only (whole blood [1]; [4]): 1.00 | Whole blood IL-2 release, Concentration (whole blood [1]; [5]): 3.2 pg/mL | Whole blood IL-2 release, Fold-change over medium only (whole blood [1]; [5]): 1.00 | Whole blood IL-2 release, Concentration (whole blood [1]; [6]): 3.2 pg/mL | Whole blood IL-2 release, Fold-change over medium only (whole blood [1]; [6]): 1.00 | Whole blood IL-2 release, Concentration (whole blood [1]; [7]): 12.2 pg/mL | Whole blood IL-2 release, Fold-change over medium only (whole blood [1]; [7]): 3.82 | Whole blood IL-2 release, Concentration (whole blood [1]; [8]): 12.5 pg/mL | Whole blood IL-2 release, Fold-change over medium only (whole blood [1]; [8]): 2.52 | Whole blood IL-2 release, Concentration (whole blood [1]; [9]): 88.5 pg/mL | Whole blood IL-2 release, Fold-change over medium only (whole blood [1]; [9]): 20.88 | Whole blood IL-2 release, Concentration (whole blood [1]; [10]): 144.4 pg/mL | Whole blood IL-2 release, Fold-change over medium only (whole blood [1]; [10]): 2.30 | Whole blood IL-2 release, Concentration (whole blood [1]; [11]): 71.2 pg/mL | Whole blood IL-2 release, Fold-change over medium only (whole blood [1]; [11]): 1.69 | Whole blood IFNg release, Concentration (whole blood [2]; [4]): 39 pg/mL | Whole blood IFNg release, Fold-change over medium only (whole blood [2]; [4]): 0.71 | Whole blood IFNg release, Concentration (whole blood [2]; [5]): 55 pg/mL | Whole blood IFNg release, Fold-change over medium only (whole blood [2]; [5]): 0.84 | Whole blood IFNg release, Concentration (whole blood [2]; [6]): 4.1 pg/mL | Whole blood IFNg release, Fold-change over medium only (whole blood [2]; [6]): 1.06 | Whole blood IFNg release, Concentration (whole blood [2]; [7]): 13.9 pg/mL | Whole blood IFNg release, Fold-change over medium only (whole blood [2]; [7]): 2.85 | Whole blood IFNg release, Concentration (whole blood [2]; [8]): 102 pg/mL | Whole blood IFNg release, Fold-change over medium only (whole blood [2]; [8]): 1.05 | Whole blood IFNg release, Concentration (whole blood [2]; [9]): 200 pg/mL | Whole blood IFNg release, Fold-change over medium only (whole blood [2]; [9]): 2.03 | Whole blood IFNg release, Concentration (whole blood [2]; [10]): 407 pg/mL | Whole blood IFNg release, Fold-change over medium only (whole blood [2]; [10]): 1.71 | Whole blood IFNg release, Concentration (whole blood [2]; [11]): 194 pg/mL | Whole blood IFNg release, Fold-change over medium only (whole blood [2]; [11]): 1.29 | Whole blood IP-10 release, Concentration (whole blood [3]; [12]): 201 pg/mL | Whole blood IP-10 release, Fold-change over medium only (whole blood [3]; [12]): 0.76 | Whole blood IP-10 release, Concentration (whole blood [3]; [13]): 384 pg/mL | Whole blood IP-10 release, Fold-change over medium only (whole blood [3]; [13]): 1.15 | Whole blood IP-10 release, Concentration (whole blood [3]; [14]): 320 pg/mL | Whole blood IP-10 release, Fold-change over medium only (whole blood [3]; [14]): 1.20 | Whole blood IP-10 release, Concentration (whole blood [3]; [15]): 1844 pg/mL | Whole blood IP-10 release, Fold-change over medium only (whole blood [3]; [15]): 5.90 | Whole blood IP-10 release, Concentration (whole blood [3]; [16]): 1616 pg/mL | Whole blood IP-10 release, Fold-change over medium only (whole blood [3]; [16]): 5.83 | Whole blood IP-10 release, Concentration (whole blood [3]; [17]): 10000 pg/mL | Whole blood IP-10 release, Fold-change over medium only (whole blood [3]; [17]): 49.76 | Whole blood IP-10 release, Concentration (whole blood [3]; [18]): 977 pg/mL | Whole blood IP-10 release, Fold-change over medium only (whole blood [3]; [18]): 1.32 | Whole blood IP-10 release, Concentration (whole blood [3]; [19]): 3293 pg/mL | Whole blood IP-10 release, Fold-change over medium only (whole blood [3]; [19]): 3.69

(pE)QPFPQPEQPFPWQP-NH2 ([pGlu]QPFPQPEQPFPWQP-NH2; SMILES NC(=O)CC[C@H](NC(=O)[C@H](Cc1c[nH]c2ccccc12)NC(=O)[C@@H]1CCCN1C(=O)[C@H](Cc1ccccc1)NC(=O)[C@@H]1CCCN1C(=O)[C@H](CCC(N)=O)NC(=O)[C@H](CCC(=O)O)NC(=O)[C@@H]1CCCN1C(=O)[C@H](CCC(N)=O)NC(=O)[C@@H]1CCCN1C(=O)[C@H](Cc1ccccc1)NC(=O)[C@@H]1CCCN1C(=O)[C@H](CCC(N)=O)NC(=O)[C@@H]1CCC(=O)N1)C(=O)N1CCC[C@H]1C(N)=O)
Whole blood IL-2 release, Concentration (whole blood [1]; [4]): 3.2 pg/mL | Whole blood IL-2 release, Fold-change over medium only (whole blood [1]; [4]): 1.00 | Whole blood IL-2 release, Concentration (whole blood [1]; [5]): 3.2 pg/mL | Whole blood IL-2 release, Fold-change over medium only (whole blood [1]; [5]): 1.00 | Whole blood IL-2 release, Concentration (whole blood [1]; [6]): 3.2 pg/mL | Whole blood IL-2 release, Fold-change over medium only (whole blood [1]; [6]): 1.00 | Whole blood IL-2 release, Concentration (whole blood [1]; [7]): 5.2 pg/mL | Whole blood IL-2 release, Fold-change over medium only (whole blood [1]; [7]): 1.61 | Whole blood IL-2 release, Concentration (whole blood [1]; [8]): 17.9 pg/mL | Whole blood IL-2 release, Fold-change over medium only (whole blood [1]; [8]): 3.62 | Whole blood IL-2 release, Concentration (whole blood [1]; [9]): 115.9 pg/mL | Whole blood IL-2 release, Fold-change over medium only (whole blood [1]; [9]): 27.33 | Whole blood IL-2 release, Concentration (whole blood [1]; [10]): 41.4 pg/mL | Whole blood IL-2 release, Fold-change over medium only (whole blood [1]; [10]): 0.66 | Whole blood IL-2 release, Concentration (whole blood [1]; [11]): 55.1 pg/mL | Whole blood IL-2 release, Fold-change over medium only (whole blood [1]; [11]): 1.31 | Whole blood IFNg release, Concentration (whole blood [2]; [4]): 60 pg/mL | Whole blood IFNg release, Fold-change over medium only (whole blood [2]; [4]): 1.09 | Whole blood IFNg release, Concentration (whole blood [2]; [5]): 62 pg/mL | Whole blood IFNg release, Fold-change over medium only (whole blood [2]; [5]): 0.95 | Whole blood IFNg release, Concentration (whole blood [2]; [6]): 4.5 pg/mL | Whole blood IFNg release, Fold-change over medium only (whole blood [2]; [6]): 1.19 | Whole blood IFNg release, Concentration (whole blood [2]; [7]): 6.4 pg/mL | Whole blood IFNg release, Fold-change over medium only (whole blood [2]; [7]): 1.32 | Whole blood IFNg release, Concentration (whole blood [2]; [8]): 94 pg/mL | Whole blood IFNg release, Fold-change over medium only (whole blood [2]; [8]): 0.98 | Whole blood IFNg release, Concentration (whole blood [2]; [9]): 258 pg/mL | Whole blood IFNg release, Fold-change over medium only (whole blood [2]; [9]): 2.63 | Whole blood IFNg release, Concentration (whole blood [2]; [10]): 158 pg/mL | Whole blood IFNg release, Fold-change over medium only (whole blood [2]; [10]): 0.66 | Whole blood IFNg release, Concentration (whole blood [2]; [11]): 150 pg/mL | Whole blood IFNg release, Fold-change over medium only (whole blood [2]; [11]): 1.00 | Whole blood IP-10 release, Concentration (whole blood [3]; [12]): 218 pg/mL | Whole blood IP-10 release, Fold-change over medium only (whole blood [3]; [12]): 0.82 | Whole blood IP-10 release, Concentration (whole blood [3]; [13]): 501 pg/mL | Whole blood IP-10 release, Fold-change over medium only (whole blood [3]; [13]): 1.49 | Whole blood IP-10 release, Concentration (whole blood [3]; [14]): 376 pg/mL | Whole blood IP-10 release, Fold-change over medium only (whole blood [3]; [14]): 1.42 | Whole blood IP-10 release, Concentration (whole blood [3]; [15]): 1140 pg/mL | Whole blood IP-10 release, Fold-change over medium only (whole blood [3]; [15]): 3.65 | Whole blood IP-10 release, Concentration (whole blood [3]; [16]): 1934 pg/mL | Whole blood IP-10 release, Fold-change over medium only (whole blood [3]; [16]): 6.98 | Whole blood IP-10 release, Concentration (whole blood [3]; [17]): 10000 pg/mL | Whole blood IP-10 release, Fold-change over medium only (whole blood [3]; [17]): 49.76 | Whole blood IP-10 release, Concentration (whole blood [3]; [18]): 900 pg/mL | Whole blood IP-10 release, Fold-change over medium only (whole blood [3]; [18]): 1.21 | Whole blood IP-10 release, Concentration (whole blood [3]; [19]): 10000 pg/mL | Whole blood IP-10 release, Fold-change over medium only (whole blood [3]; [19]): 11.21

Reference: patent publication US20170045529A1, “METHODS OF MEASURING ANTIGEN-SPECIFIC T CELLS” (ImmusanT, Inc., priority 2014, published 2017)
